Measurements reported in patent publication US11360080B2, “AhR-ROR-γt complex as a biomarker and therapeutic target for autoimmune disease and IL-17A-associated disease” (NATIONAL HEALTH RESEARCH INSTITUTES, priority 2018, dated 2022).
Structures can show the parent of a compound that is named as a salt.

What was measured:
[1] = tested on: human peripheral blood T cells; test: ELISA of IL-17A in supernatants of human T cells stimulated with anti-CD3/CD28; format: cell-based; conditions: 1 μM or 5 μM for 3 days
Experimental: Means±SD are shown, (b) ELISA of IL-17A in supernatants of human T cells. T cells were stimulated with anti-CD3/CD28 and treated with C1 (verteporfin) (1 μM or 5 μM) or C2 (1 μM or 5 μM) for 3 days. HC, healthy control; SLE, systemic lupus erythematosus; RA, rheumatoid arthritis; AS, ankylosing spondylitis; PsA, psoriatic arthritis; PSS, primary Sjögren's syndrome. Means±SD are shown. C1 denotes verteporfin; C2 denotes alexidine dihydrochloride.
We further studied whether IL-17A production is abolished by the inhibitors of GLK-induced AhR-RORγt complex in human and murine T cells. We first tested the inhibitor experiment using murine T cells stimulated with TCR signaling (anti-CD3 plus anti-CD28 antibodies). […] Next, we studied the blocking effect of IL-17 production by the treatment of C1 (verteporfin) or C2 (alexidine dihydrochloride) using human peripheral blood T cells. […] Taken together, GLK inhibitors (verteporfin and alexidine dihydrochloride) inhibit GLK-induced AhR-RORγt complex and IL-17A production in human autoimmune patient T cells, as well as the disease severity of autoimmune animal models. Thus, GLK, GLK signaling, or GLK-induced AhR-RORγt complex can be a promising therapeutic target for autoimmune diseases.

[2] = target: T1, GLK (MAP4K3) (Homo sapiens, UniProt Q8IVH8); test: In vitro kinase assay, recombinant kinase domain, myelin basic protein (MBP) as substrate; format: biochemical
T1 construct: Recombinant proteins of kinase domains of various MAP4Ks were used
Experimental: GLK kinase activity was determined by measuring the rate of ADP production in the in vitro kinase reaction using ADP-GLO™ Kinase Assay kit. For the kinase reaction, recombinant proteins of the GLK kinase-domain (1 μg) were incubated with recombinant proteins of kinase-dead PKCθ (K409W; 0.15 μg) plus ATP (0.1 mM) or myelin basic protein (MBP) plus ATP (0.1 mM) in kinase buffer (40 mM Tris-HCl, pH7.5.20 mM MgCl2, 0.1 mg/ml BSA, 10 mM DTT and 0.1 mM Na3VO4) for 30 min at room temperature. We studied whether GLK inhibitors also suppress cancer cell migration. […] Moreover, both C1 (verteporfin) and C2 (alexidine dihydrochloride) treatments suppressed tumor growth in the xenograft mouse model using TC-1 lung cancer cells (FIG. 15). To study whether GLK deficiency results in a reduction of lung cancer metastasis, we used a metastatic Lewis lung carcinoma (LLC) mouse model by tail vein injection of luciferase-expressing LLC (LLC/luc) cells. We identified two GLK inhibitors (verteporfin and alexidine dihydrochloride)) using cell-based assays and in vitro kinase assays. […] The luciferase activity of LLC/luc cells in the mice was detected by In Vivo Imaging System. […] Inhibition of kinase activity of GLK (MAP4K3) or other MAP4Ks was determined by in vitro kinase assays using myelin basic protein (MBP) as a substrate. […]

[3] = target: T2, GLK kinase domain (Homo sapiens, UniProt Q8IVH8); test: In vitro GLK kinase assay (ADP-GLO) with kinase-dead PKCθ (K409W) as substrate; format: biochemical; conditions: screening of 101,200 compounds
T2 construct: recombinant proteins of the GLK kinase-domain (1 μg) were incubated with recombinant proteins of kinase-dead PKCθ
T2 sequence (Q8IVH8 16-273 limits assumed): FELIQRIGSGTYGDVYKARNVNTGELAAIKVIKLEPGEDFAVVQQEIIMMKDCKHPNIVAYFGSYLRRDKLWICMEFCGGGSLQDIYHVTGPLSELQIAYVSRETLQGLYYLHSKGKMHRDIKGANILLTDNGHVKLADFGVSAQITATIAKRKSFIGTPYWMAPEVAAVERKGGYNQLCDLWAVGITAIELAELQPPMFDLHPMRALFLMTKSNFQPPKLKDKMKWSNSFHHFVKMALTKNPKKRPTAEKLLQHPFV
Experimental: (A) Luciferase activity of NF-κB-driven reporter assays in stable GLK-transfected CHO-K1 cells that were treated with or without the GLK inhibitor C1 (verteporfin) under the indicated concentration. The fold changes are presented relative to the value of vector control. (B) Recombinant proteins of GLK kinase domain plus recombinant proteins of GST-tagged kinase-dead PKCθ (K409W) were subjected to in vitro kinase assays in the presence or absence of the GLK inhibitor C1 (verteporfin). Means±SD of are shown. *, P value<0.05; **, P value<0.01 (two-tailed Student's t-test). (C) The AhR-RORγt complex was inhibited by the GLK inhibitor. Confocal microscopy of proximity ligation assays (PLA) for the interaction between AhR and either RORγt or phospho-RORγt (S489) in peripheral blood T cells treated with C1 (verteporfin) (5 μM) for 30 min. The T cells were freshly isolated from 4 SLE patients and 1 RA patients. C1 denotes verteporfin; C2 denotes alexidine dihydrochloride. (D) Quantification of the PLA signals of (C). (E) FRET assays of HEK293T cells co-transfected with CFP-AhR, YFP-RORγt, and IKKβ plasmids.
GLK kinase activity was determined by measuring the rate of ADP production in the in vitro kinase reaction using ADP-GLO™ Kinase Assay kit. For the kinase reaction, recombinant proteins of the GLK kinase-domain (1 μg) were incubated with recombinant proteins of kinase-dead PKCθ (K409W; 0.15 μg) plus ATP (0.1 mM) or myelin basic protein (MBP) plus ATP (0.1 mM) in kinase buffer (40 mM Tris-HCl, pH7.5.20 mM MgCl2, 0.1 mg/ml BSA, 10 mM DTT and 0.1 mM Na3VO4) for 30 min at room temperature.
Cell-based high-throughput screening was conducted against a representative library of 100,000 molecules at ˜10 μM. CHO-GLK-Luc cells expressing GLK and NF-κB-luciferase reporter were used. The reaction volume was 5 μl (500 cells) per well in 1,536-well plates. There was no positive control. This high-throughput screening campaign was successful with a determined Z′ factor of 0.57˜0.60. […]

Row | IC50 [2] | GLK kinase activity in vitro [3] | GLK kinase activity in vitro ([3]; listed as verteporfin) | SMILES | IL-17A production, anti-CD3/CD28-stimulated T cells of autoimmune disease patients [1] | TCR-induced IL-17A production, T cells from healthy controls [1]
1 | 1.15 nM | efficiently inhibited | most effective inhibitor | C=Cc1c(C)c2cc3nc(cc4[nH]c(cc5nc(cc1[nH]2)C(C)=C5CCC(=O)O)c(CCC(=O)OC)c4C)[C@@]1(C)C3=CC=C(C(=O)OC)[C@H]1C(=O)OC [C1, verteporfin] | drastically inhibited | significantly reduced
2 | 10.1 nM | efficiently inhibited | – | CCCCC(CC)CNC(=N)NC(=N)NCCCCCCNC(=N)NC(=N)NCC(CC)CCCC (centres unmarked) [C2, alexidine dihydrochloride] | drastically inhibited | –
